Measured values: patent publication US20070208085A1 (SOMANTA LIMITED, priority 2006, published 2007)
Where two headings read alike, the source gives them in different places.

Legend:
786-0 = experiment: NCI human cell line panel cytotoxicity; assay type: cell-based; conditions: Renal
Method: (§1) To identify the activity of the compound of formula IV in additional cell lines, an NCI human cell line panel was screened for sensitivity to the compound. Cytotoxicity was evaluated for chloroethylaminoanthraquinone compounds synthesized as described in EXAMPLE 1, using an in vitro cell based assay as described in Pors et al., Mol. Cancer Ther., 2:607-610 (2003).
(§2) Human tumor cell lines from the NCI human cell line panel (Table 2) were tested in the assay.
(§3) Growth inhibition was determined, and was expressed as the concentration (nM) required to inhibit cell growth by 50% (IG50). […] In particular, excellent activity was observed against CNS, colon, NSCLC and renal cancer cell lines. […] Standard methods were used for MTT results (Monks A et. al., J. Natl Cancer Inst. 1991 June 5;83(11):757-66).

A549/ATCC = experiment: NCI human cell line panel cytotoxicity; assay type: cell-based; conditions: NSCLC
Method: as §1, §2, §3

ACHN = experiment: NCI human cell line panel cytotoxicity; assay type: cell-based; conditions: Renal
Method: as §1, §2, §3

BT549 = experiment: NCI human cell line panel cytotoxicity; assay type: cell-based; conditions: BT-549, Breast
Method: as §1, §2, §3

DU145 = experiment: NCI human cell line panel cytotoxicity; assay type: cell-based; conditions: DU-145, Prostate
Method: as §1, §2, §3

EKVX = experiment: NCI human cell line panel cytotoxicity; assay type: cell-based; conditions: NSCLC
Method: as §1, §2, §3

HCT-116 = experiment: NCI human cell line panel cytotoxicity; assay type: cell-based; conditions: Colon
Method: as §1, §2, §3

HCT-15 = experiment: NCI human cell line panel cytotoxicity; assay type: cell-based; conditions: Colon
Method: as §1, §2, §3

HS 578T = experiment: NCI human cell line panel cytotoxicity; assay type: cell-based; conditions: Breast
Method: as §1, §2, §3

HT-29 = experiment: NCI human cell line panel cytotoxicity; assay type: cell-based; conditions: Colon
Method: as §1, §2, §3

KM 12 = experiment: NCI human cell line panel cytotoxicity; assay type: cell-based; conditions: KM12, Colon
Method: as §1, §2, §3

LOX IMVI = experiment: NCI human cell line panel cytotoxicity; assay type: cell-based; conditions: Melanoma
Method: as §1, §2, §3

MCF7 = experiment: NCI human cell line panel cytotoxicity; assay type: cell-based; conditions: Breast
Method: as §1, §2, §3

MDA-MB-231/ATCC = experiment: NCI human cell line panel cytotoxicity; assay type: cell-based; conditions: Breast
Method: as §1, §2, §3

MDA-MB-435 = experiment: NCI human cell line panel cytotoxicity; assay type: cell-based; conditions: Breast
Method: as §1, §2, §3

NCI-H226 = experiment: NCI human cell line panel cytotoxicity; assay type: cell-based; conditions: NSCLC
Method: as §1, §2, §3

NCI-H322M = experiment: NCI human cell line panel cytotoxicity; assay type: cell-based; conditions: NSCLC
Method: as §1, §2, §3

NCI-H460 = experiment: NCI human cell line panel cytotoxicity; assay type: cell-based; conditions: NSCLC
Method: as §1, §2, §3

PC3 = experiment: NCI human cell line panel cytotoxicity; assay type: cell-based; conditions: PC-3, Prostate
Method: as §1, §2, §3

RPMI 8226 = experiment: NCI human cell line panel cytotoxicity; assay type: cell-based; conditions: Leuk
Method: as §1, §2, §3

SF 268 = experiment: NCI human cell line panel cytotoxicity; assay type: cell-based; conditions: CNS
Method: as §1, §2, §3

SF 539 = experiment: NCI human cell line panel cytotoxicity; assay type: cell-based; conditions: CNS
Method: as §1, §2, §3

SK MEL 5 = experiment: NCI human cell line panel cytotoxicity; assay type: cell-based; conditions: Melanoma
Method: as §1, §2, §3

SN12C = experiment: NCI human cell line panel cytotoxicity; assay type: cell-based; conditions: Renal
Method: as §1, §2, §3

TK10 = experiment: NCI human cell line panel cytotoxicity; assay type: cell-based; conditions: TK-10, Renal
Method: as §1, §2, §3

U251 = experiment: NCI human cell line panel cytotoxicity; assay type: cell-based; conditions: U-251, CNS
Method: as §1, §2, §3

UACC-257 = experiment: NCI human cell line panel cytotoxicity; assay type: cell-based; conditions: Melanoma
Method: as §1, §2, §3

UACC-62 = experiment: NCI human cell line panel cytotoxicity; assay type: cell-based; conditions: Melanoma
Method: as §1, §2, §3

NCI human cell lines = experiment: NCI human cell line panel, mean over cell lines; assay type: cell-based; conditions: mean against the NCI human cell lines (28 tested)
Method: as §1, §2, §3

[1] = system: human osteosarcoma cell line (U-2 OS); experiment: Cell cycle events by flow cytometry and timelapse, cyclin B1-GFP reporter; assay type: cell-based; conditions: U2-OS
Method: The U2 OS cells were stably transfected with a Green Fluorescent Protein tagged Cyclin B1 reporter and maintained at 37° C. and 5% CO2 in McCoys 5A modified medium (Sigma) supplemented with 2 mM glutamine, 100 units/ml penicillin, 100 μg/ml streptomycin, 10% fetal calf serum and 1000 μg/ml geneticin. Appropriate dilutions were added to the wells to obtain treatment regimes of 0, 10 and 100 nM of the experimental compound.
The cells were plated in a 6 well plate (density ˜15-20%). Each experiment consisted of the paired drug treatment at the appropriate dose added to the cells and the plate was placed on a stage of an inverted microscope in a sealed environment (37° C./humidified 5% CO2), and the entire apparatus was situated on a vibration-free table. Three fields were selected per well to triplicate the sampling for each experiment. Images at 10× magnification and were taken every 15 minutes over 3 days using a Cohu cooled CCD camera and the programme AQM Advance 6 to store the images. The images were viewed using the Metamorph programme.
Experimental data derived from the timelapse were analyzed by comparing the morphology of the cells and the relative growth rates per treatment regimen. This was achieved by counting the number of live cells per field every 12 hours (since a normal cell has a generation time of 24 hours) and plotting the data into relative growth curves. The initial rate of growth (between time points 0-12 and 12-24) was then calculated.
Samples by flow cytometry. U-2 OS cells were treated with the compound in a 6 well plate in an incubator over 2 days. Cells were then extracted from the plate, and Draq5 added to stain the DNA before they were analyzed using a Becton Dickinson FACS Vantage flow cytometer. The flow data was gated for intact cells, and the DRAQ5 levels (indicator of DNA content) were extracted.
DNA content and Cyclin B1 expression were measured using flow cytometry and a p53 functional human osteosarcoma cell line (U2-OS) as described above.

[2] = system: A2780 human ovarian carcinoma cell line; conditions: cited from earlier work
[3] = system: doxorubicin-resistant and cisplatin-resistant tumor cell lines; conditions: cited from earlier work

CN(C)CCNc1ccc(NCCN(CCCl)CCCl)c2c1C(=O)c1c(O)ccc(O)c1C2=O [Compound IV]
IC50 (786-0; read-out: IC50 nM): < 10 nM | IC50 (786-0; read-out: IC50): < 10 nM | IC50 (786-0; read-out: Log IC50 (converted)): ≤ 10 nM | IC50 (A549/ATCC; read-out: IC50 nM): 27 nM | IC50 (A549/ATCC; read-out: IC50): 26.9 nM | IC50 (A549/ATCC; read-out: Log IC50 (converted)): 26.9 nM | IC50 (ACHN; read-out: IC50 nM): < 10 nM | IC50 (ACHN; read-out: IC50): < 10 nM | IC50 (ACHN; read-out: Log IC50 (converted)): ≤ 10 nM | IC50 (BT549; read-out: IC50 nM): 2040 nM | IC50 (BT549; read-out: IC50): 2040 nM | IC50 (BT549; read-out: Log IC50 (converted)): 2040 nM | IC50 (DU145; read-out: IC50 nM): 50 nM | IC50 (DU145; read-out: IC50): 50.1 nM | IC50 (DU145; read-out: Log IC50 (converted)): 50.1 nM | IC50 (EKVX; read-out: IC50 nM): 759 nM | IC50 (EKVX; read-out: IC50): 759 nM | IC50 (EKVX; read-out: Log IC50 (converted)): 759 nM | IC50 (HCT-116; read-out: IC50 nM): < 10 nM | IC50 (HCT-116; read-out: IC50): < 10 nM | IC50 (HCT-116; read-out: Log IC50 (converted)): ≤ 10 nM | IC50 (HCT-15; read-out: IC50 nM): < 10 nM | IC50 (HCT-15; read-out: IC50): < 10 nM | IC50 (HCT-15; read-out: Log IC50 (converted)): ≤ 10 nM | IC50 (HS 578T; read-out: IC50 nM): 525 nM | IC50 (HS 578T; read-out: IC50): 525 nM | IC50 (HS 578T; read-out: Log IC50 (converted)): 525 nM | IC50 (HT-29; read-out: IC50 nM): < 10 nM | IC50 (HT-29; read-out: IC50): < 10 nM | IC50 (HT-29; read-out: Log IC50 (converted)): ≤ 10 nM | IC50 (KM 12; read-out: IC50 nM): 138 nM | IC50 (KM 12; read-out: IC50): 138 nM | IC50 (KM 12; read-out: Log IC50 (converted)): 138 nM | IC50 (LOX IMVI; read-out: IC50 nM): < 10 nM | IC50 (LOX IMVI; read-out: IC50): < 10 nM | IC50 (LOX IMVI; read-out: Log IC50 (converted)): ≤ 10 nM | IC50 (MCF7; read-out: IC50 nM): < 10 nM | IC50 (MCF7; read-out: IC50): < 10 nM | IC50 (MCF7; read-out: Log IC50 (converted)): ≤ 10 nM | IC50 (MDA-MB-231/ATCC; read-out: IC50 nM): 100 nM | IC50 (MDA-MB-231/ATCC; read-out: IC50): 100 nM | IC50 (MDA-MB-231/ATCC; read-out: Log IC50 (converted)): 100 nM | IC50 (MDA-MB-435; read-out: IC50 nM): 21 nM | IC50 (MDA-MB-435; read-out: IC50): 20.9 nM | IC50 (MDA-MB-435; read-out: Log IC50 (converted)): 20.9 nM | IC50 (NCI-H226; read-out: IC50 nM): 54 nM | IC50 (NCI-H226; read-out: IC50): 53.7 nM | IC50 (NCI-H226; read-out: Log IC50 (converted)): 53.7 nM | IC50 (NCI-H322M; read-out: IC50 nM): 295 nM | IC50 (NCI-H322M; read-out: IC50): 295 nM | IC50 (NCI-H322M; read-out: Log IC50 (converted)): 295 nM | IC50 (NCI-H460; read-out: IC50 nM): < 10 nM | IC50 (NCI-H460; read-out: IC50): < 10 nM | IC50 (NCI-H460; read-out: Log IC50 (converted)): ≤ 10 nM | IC50 (PC3; read-out: IC50 nM): 50 nM | IC50 (PC3; read-out: IC50): 50.1 nM | IC50 (PC3; read-out: Log IC50 (converted)): 50.1 nM | IC50 (RPMI 8226; read-out: IC50 nM): < 10 nM | IC50 (RPMI 8226; read-out: IC50): < 10 nM | IC50 (RPMI 8226; read-out: Log IC50 (converted)): ≤ 10 nM | IC50 (SF 268; read-out: IC50 nM): < 10 nM | IC50 (SF 268; read-out: IC50): < 10 nM | IC50 (SF 268; read-out: Log IC50 (converted)): ≤ 10 nM | IC50 (SF 539; read-out: IC50 nM): < 10 nM | IC50 (SF 539; read-out: IC50): < 10 nM | IC50 (SF 539; read-out: Log IC50 (converted)): ≤ 10 nM | IC50 (SK MEL 5; read-out: IC50 nM): 71 nM | IC50 (SK MEL 5; read-out: IC50): 70.8 nM | IC50 (SK MEL 5; read-out: Log IC50 (converted)): 70.8 nM | IC50 (SN12C; read-out: IC50 nM): 27 nM | IC50 (SN12C; read-out: IC50): 26.9 nM | IC50 (SN12C; read-out: Log IC50 (converted)): 26.9 nM | IC50 (TK10; read-out: IC50 nM): 407 nM | IC50 (TK10; read-out: IC50): 407 nM | IC50 (TK10; read-out: Log IC50 (converted)): 407 nM | IC50 (U251; read-out: IC50 nM): 19 nM | IC50 (U251; read-out: IC50): 19.1 nM | IC50 (U251; read-out: Log IC50 (converted)): 19.1 nM | IC50 (UACC-257; read-out: IC50 nM): 1860 nM | IC50 (UACC-257; read-out: IC50): 1860 nM | IC50 (UACC-257; read-out: Log IC50 (converted)): 1860 nM | IC50 (UACC-62; read-out: IC50 nM): 219 nM | IC50 (UACC-62; read-out: IC50): 219 nM | IC50 (UACC-62; read-out: Log IC50 (converted)): 219 nM | IC50 (NCI human cell lines): 49 nM | G2 arrest [1]: limited expression of G2 arrest | polyploidy on escape from G2 arrest (B1 cyclin tracking) [1]: forced some cells to enter polyploidy via an aberrant mitosis | pan-cell cycle progression and mitotic commitment ([1]; compared to untreated cells): slowed pan-cell cycle progression and mitotic commitment | induction of apoptosis ([1]; immediate (<24 h)): without any immediate (<24 h) induction of apoptosis | cytotoxicity [2]: potent cytotoxicity | cellular drug resistance ([3]; Pors et al., 2003): very low resistance | cytotoxicity against resistant cell lines ([3]; doxorubicin-resistant and cisplatin-resistant tumor cell lines, in vitro): maintained potent cytotoxicity | resistance relative to doxorubicin ([3]; fold less resistant, Pors et al., 2003): 250 fold | resistance relative to the other chloroethylaminoanthraquinones tested ([3]; fold less, Pors et al., 2003): 20-150 fold
